Measurements taken from PMC5840523, “Assessment of a pretomanid analogue library for African trypanosomiasis: Hit-to-lead studies on 6-substituted 2-nitro-6,7-dihydro-5H-imidazo[2,1-b][1,3]thiazine 8-oxides” (Bioorganic & Medicinal Chemistry Letters, 2018).
In brackets after ≈: the same amount, converted by molar mass. Read-outs that look alike come from different tables or passages of the source. Each block holds one molecule with its values, some of them ahead of it.

Key:
T. b. brucei 427 [1] = assay: T. b. brucei 427 growth inhibition (Scynexis); type: cell-based, Trypanosoma brucei brucei; settings: for Selectivity Index: L929 vs T. b. brucei; for IC50: Trypanosoma brucei, growth inhibition of T. b. brucei 427, mean ± SD
L929 mouse fibroblasts = assay: Cytotoxicity toward L929 mouse fibroblasts (Scynexis); type: cell-based
Mouse liver S9 stability = type: in vitro ADME; settings: CD-1, mouse, mouse liver S9 subcellular fraction, half-life in mouse liver S9 fraction; read-out: Mouse S9 t1/2
[2] = Kinetic aqueous solubility in pH 7.4 PBS; type: physicochemical
Text: Table 1 Inhibitory potency, metabolic stability, aqueous solubility, and MDCK-MDR1 cell permeability for 15 screening hits against T. b. brucei. | column: Solubility ^c / (µg/mL)

[3] = Mouse pharmacokinetics (plasma, whole blood, brain); type: in vivo, male CD-1 mice; settings: male, CD-1, mouse; for bioavailability: po, from dose normalised AUClast values, read-out: F (oral bioavailability); for Vd: read-out: Vdss; for half-life: read-out: t1/2 (converted)
Procedure: In order to determine the suitability of the more permeable hits for in vivo efficacy studies, we first measured their aqueous solubilities, and their tendencies to metabolise, following a 1 h incubation with CD-1 mouse liver S9 subcellular fractions.[14] […] This led us to probe their in vivo pharmacokinetic (PK) profiles in mice, examining concentration levels in plasma, whole blood and brain tissue following both intravenous and oral administration (Table 2; for further experimental details, see the Supporting Information). […]
Mouse Pharmacokinetics. The in-life portion of PK testing was carried out by ViviSource Laboratories, Inc., Mass achusetts, USA, and PK samples were anal ysed by Sc ynexis, Inc.
Test compounds (9, 12, 17, and 19) w er e each administered as single doses to groups of 10 male CD-1 mice by bolus intravenous injection or oral gavage. Intravenous dosing (at a nominal dose of 2 mg/kg) emplo yed a solution vehicle comprising either 20% EtOH, 20% propylene gl ycol, and 30% PEG -400 in normal saline (for powders 9, 17, and 19) or 0.5% (hydrox yprop yl)meth ylcellulose, 0.4% Tween 80, 0.5% benz yl alcohol, and 20% DMSO i n deionised water (for oil 12). […]
in 0.5% methylcellulose, 0.08% Tween 80 in water ( ex cept fo r oil 12, where the formulation additionally contained 20% DMSO). […]

T. b. brucei 427 [4] = assay: T. b. brucei growth inhibition (University of Antwerp); type: cell-based, Trypanosoma brucei brucei; settings: Trypanosoma brucei, T. b. brucei 427; mean of 2 to 5 determinations; read-out: IC50 T. b. bruc
T. b. rhodesiense = T. b. rhodesiense growth inhibition (University of Antwerp); type: cell-based, Trypanosoma brucei rhodesiense; settings: Trypanosoma brucei, RHODESIENSE, mean of 2 to 5 determinations; read-out: IC50 T. b. rhod
Trypanosoma cruzi = assay: T. cruzi growth inhibition (University of Antwerp); type: cell-based; settings: Trypanosoma cruzi, mean of 2 to 5 determinations
Leishmania infantum = assay: L. infantum growth inhibition (University of Antwerp); type: cell-based; settings: Leishmania infantum, mean of 2 to 5 determinations
[5] = system: human lung fibroblasts (MRC-5 cells); assay: Cytotoxicity toward MRC-5 cells (University of Antwerp); type: cell-based; settings: Homo sapiens, MRC5, cytotoxicity toward human lung fibroblasts
in vitro = settings: dog, MDCK-MDR1, Permeability Papp
MDCK-MDR1 cell monolayer = settings: dog, MDCK-MDR1, 1 h, 3 µM
[6] = Human liver microsomal stability; type: in vitro ADME; settings: pooled human liver microsomes
[7] = Mouse liver microsomal stability; type: in vitro ADME; settings: CD-1 mouse liver microsomes
[8] = brain, intravenous, corrected doses 0.5, 1.1, 2.9, 2.0 mg/kg for 9, 12, 17, 19
[9] = brain, oral, corrected doses 62, 50, 78, 49 mg/kg for 9, 12, 17, 19
[10] = plasma, intravenous, corrected doses 0.5, 1.1, 2.9, 2.0 mg/kg for 9, 12, 17, 19
[11] = plasma, oral, corrected doses 62, 50, 78, 49 mg/kg for 9, 12, 17, 19
[12] = whole blood, intravenous, corrected doses 0.5, 1.1, 2.9, 2.0 mg/kg for 9, 12, 17, 19
[13] = whole blood, oral, corrected doses 62, 50, 78, 49 mg/kg for 9, 12, 17, 19

SMILES: O=[N+]([O-])c1cn2c(n1)OC[C@@H](OCC#Cc1ccc(-c3ccc(C(F)(F)F)cc3)cn1)C2 [Compound 16]
- Selectivity Index (T. b. brucei 427 [1]): >19
- IC50 (T. b. brucei 427 [1]): 0.53 ± 0.23 mg/L (≈ 1.19 µM)
- IC50 (L929 mouse fibroblasts): > 10 mg/L
- absolute AQ (MDCK-MDR1 cell monolayer): ≥ 0.3

SMILES: O=[N+]([O-])c1cn2c(n1)S(=O)(=O)CC(OCc1ccc(OCc3ccccc3)cc1)C2 (centres unmarked) [Compound 10]
- Selectivity Index (T. b. brucei 427 [1]): >303
- IC50 (T. b. brucei 427 [1]): 0.033 ± 0.018 mg/L (≈ 0.0768 µM)
- IC50 (L929 mouse fibroblasts): > 10 mg/L
- IC50 (T. b. brucei 427 [4]): 0.097 µM
- IC50 (T. b. rhodesiense): 0.027 µM
- IC50 (Trypanosoma cruzi): 0.35 µM
- IC50 (Leishmania infantum): 7.3 µM
- IC50 [5]: > 64 µM
- absolute AQ (MDCK-MDR1 cell monolayer): ≥ 0.3

SMILES: O=[N+]([O-])c1cn2c(n1)OCC(COc1ccc(-c3ccc(C(F)(F)F)cc3)nc1)C2 (centres unmarked) [Compound 14]
- Selectivity Index (T. b. brucei 427 [1]): >36
- IC50 (T. b. brucei 427 [1]): 0.28 ± 0.11 mg/L (≈ 0.666 µM)
- IC50 (L929 mouse fibroblasts): > 10 mg/L
- Permeability Papp (MDCK-MDR1 cell monolayer): 117 nm/s
- absolute AQ (MDCK-MDR1 cell monolayer): ≥ 0.3
- Papp at 1 h, 3 µM (in vitro): < 150 nm/s

Further lines, with some results ahead:

- half-life (Mouse liver S9 stability): 4.97 h
- solubility [2]: 0.01 mg/mL (≈ 24.6 µM)
- bioavailability ([3]; brain): 43%
- bioavailability ([3]; plasma): 42%
- bioavailability ([3]; whole blood): 37%
- AUC(0-t) [3, 8]: 1.77 µg·h/mL
- clearance [3, 8]: 0.51 L/h/kg
- Vd [3, 8]: 9.1 L/kg
- half-life [3, 8]: 14 h
- AUC(0-t) [3, 9]: 18.8 µg·h/mL
- Cmax [3, 9]: 2.4 µg/mL
- Tmax [3, 9]: 4 h
- half-life [3, 9]: 3 h
- AUC(0-t) [3, 10]: 1.8 µg·h/mL
- clearance [3, 10]: 1 L/h/kg
- Vd [3, 10]: 3.6 L/kg
- half-life [3, 10]: 2.5 h
- AUC(0-t) [3, 11]: 18.7 µg·h/mL
- Cmax [3, 11]: 2.3 µg/mL
- Tmax [3, 11]: 2 h
- half-life [3, 11]: 2.7 h
- AUC(0-t) [3, 12]: 2.6 µg·h/mL
- clearance [3, 12]: 0.69 L/h/kg
- Vd [3, 12]: 2.8 L/kg
- half-life [3, 12]: 5.9 h
- AUC(0-t) [3, 13]: 23.7 µg·h/mL
- Cmax [3, 13]: 3 µg/mL
- Tmax [3, 13]: 2 h
- half-life [3, 13]: 3.3 h
- IC50 (Trypanosoma cruzi): 1.6 µM
- Papp at 1 h, 3 µM (in vitro): 624 nm/s
SMILES: O=[N+]([O-])c1cn2c(n1)S(=O)(=O)CC(OCc1ccc(OC(F)(F)F)cc1)C2 (centres unmarked) [Compound 19]
- Selectivity Index (T. b. brucei 427 [1]): >11
- weaker potency vs 12 (fold) (T. b. brucei 427 [1]; T. b. brucei): 5.6 fold
- IC50 (T. b. brucei 427 [1]): 0.9 ± 0.4 mg/L (≈ 2.21 µM)
- IC50 (L929 mouse fibroblasts): > 10 mg/L
- IC50 (T. b. brucei 427 [4]): 1.1 µM
- IC50 (T. b. rhodesiense): 0.94 µM
- IC50 (Leishmania infantum): > 64 µM
- IC50 [5]: > 64 µM

- absolute AQ (MDCK-MDR1 cell monolayer): ≥ 0.3
SMILES: O=[N+]([O-])c1cn2c(n1)OCC(COc1ccc(-c3ccc(OC(F)(F)F)cc3)nc1)C2 (centres unmarked) [Compound 18]
- Selectivity Index (T. b. brucei 427 [1]): >12
- IC50 (T. b. brucei 427 [1]): 0.83 ± 0.41 mg/L (≈ 1.9 µM)
- IC50 (L929 mouse fibroblasts): > 10 mg/L

- remaining at 1 h [6]: 93%
- remaining at 1 h [7]: 93%
- IC50 (Trypanosoma cruzi): 13 µM
SMILES: O=[N+]([O-])c1cn2c(n1)[S@@+]([O-])C[C@@H](OCc1ccc(OC(F)(F)F)cc1)C2 [Compound 25]
- IC50 (T. b. brucei 427 [1]): 2.8 ± 0.4 mg/L (≈ 7.16 µM)
- IC50 (L929 mouse fibroblasts): > 10 mg/L
- IC50 (T. b. brucei 427 [4]): 5.6 µM
- IC50 (T. b. rhodesiense): 1.9 µM
- IC50 (Leishmania infantum): > 64 µM
- IC50 [5]: > 64 µM
